The values that follow are results of earlier work, collected in PMC4148150 (Journal of Medicinal Chemistry, 2014).

The conditions of this series: mice, oral dosing.

Take `CC(=O)N1CCC(NC(=O)NC23CC4CC(CC(C4)C2)C3)CC1` [APAU, 1-(1-acetypiperidin-4-yl)-3-adamantanylurea]: the PK-AUC is 0.183 µM·h.
For `CS(=O)(=O)N1CCC(NC(=O)Nc2ccc(OC(F)(F)F)cc2)CC1` [TUPS, 1-(1-methylsulfonyl-piperidin-4-yl)-3-(4-trifluoromethoxyphenyl)-urea], the PK-AUC was 5.3 µM·h.
